The record followed here is ChEMBL document CHEMBL4145608, “Dehydrodiconiferyl Alcohol Inhibits Osteoclast Differentiation and Ovariectomy-Induced Bone Loss through Acting as an Estrogen Receptor Agonist” (J Nat Prod, 2018).

Active and inactive are the calls of the source. No cut-off for these calls is given here.

One assay addresses T1, Estrogen receptor (Homo sapiens, UniProt P03372).
T1 sequence (P03372 whole entry): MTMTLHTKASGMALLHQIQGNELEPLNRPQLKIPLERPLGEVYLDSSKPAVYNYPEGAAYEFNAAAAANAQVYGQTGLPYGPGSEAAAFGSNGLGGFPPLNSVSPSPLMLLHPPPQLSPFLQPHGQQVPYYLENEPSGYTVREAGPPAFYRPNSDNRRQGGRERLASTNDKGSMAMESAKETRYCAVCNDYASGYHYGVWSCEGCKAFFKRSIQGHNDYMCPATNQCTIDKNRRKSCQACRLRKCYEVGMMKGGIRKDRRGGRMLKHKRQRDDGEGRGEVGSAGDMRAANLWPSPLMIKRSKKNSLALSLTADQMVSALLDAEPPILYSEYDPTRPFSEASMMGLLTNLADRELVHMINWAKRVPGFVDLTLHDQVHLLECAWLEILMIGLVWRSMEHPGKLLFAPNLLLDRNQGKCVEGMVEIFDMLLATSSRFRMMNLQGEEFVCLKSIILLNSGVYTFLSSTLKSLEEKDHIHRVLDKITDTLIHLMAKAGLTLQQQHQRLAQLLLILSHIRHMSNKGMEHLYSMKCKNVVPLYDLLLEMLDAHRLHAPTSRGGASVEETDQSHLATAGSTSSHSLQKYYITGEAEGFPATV
The experiment in a line: Inhibition of fluoromone binding to recombinant human full length untagged ERalpha expressed in insect cells after 2 hrs by fluorescence polarization assay.

Assay [1] concerns RAW264.7. In words: Inhibition of RANKL-induced osteoclast differentiation in mouse RAW264.7 cells harboring ERalpha siRNA assessed as decrease in NFATc1 mRNA level at 20 uM after 24 hrs by qRT-PCR method. Format: functional, cell-based.
Assay [2] concerns RAW264.7. The experiment in a line: Inhibition of RANKL-induced osteoclast differentiation in mouse RAW264.7 cells assessed as decrease in size of TRAP-positive multinucleated cells after 5 days by microscopy. Format: functional, cell-based.
In assay [3] the test system is Mus musculus. The experiment in a line: Anti-osteoporotic activity in Balb/c mouse assessed as inhibition of OVX-mediated decrease in trabecular number in femur at 25 to 100 mg/kg, ip administered for 4 weeks daily by microcomputed tomography. The assay is classed as functional, organism-based.
Assay [4] concerns RAW264.7. In words: Inhibition of RANKL-induced osteoclast differentiation in mouse RAW264.7 cells assessed as decrease in TRAP activity at 20 uM after 5 days in presence of ERbeta antagonist PHTPP by microscopy. Format: functional, cell-based.
The test system of assay [5] is RAW264.7. In words: Inhibition of RANKL-induced osteoclast differentiation in mouse RAW264.7 cells assessed as decrease in number of TRAP-positive multinucleated cells at 20 uM after 5 days in presence of ERbeta antagonist PHTPP by microscopy. The assay is classed as functional, cell-based.
A further assay has as its target Estrogen receptor beta (Homo sapiens, UniProt Q92731). The experiment in a line: Inhibition of fluoromone binding to recombinant human full length untagged ERbeta expressed in insect cells after 2 hrs by fluorescence polarization assay.
Assay [6] concerns RAW264.7. In words: Inhibition of NF-kappaB/p38 MAPK signaling pathway in mouse RAW264.7 cells assessed as reduction in RANKL-induced cathepsin K mRNA level after 24 hrs by qRT-PCR method. The assay is classed as cell-based.
Assay [7] has as its system RAW264.7. In words: Inhibition of RANKL-induced osteoclast differentiation in mouse RAW264.7 cells harboring ERbeta siRNA assessed as decrease in TRAP mRNA level at 20 uM after 24 hrs by qRT-PCR method. The assay is classed as functional, cell-based.
Assay [8] has as its system RAW264.7. In words: Inhibition of RANKL-induced PKA phosphorylation in mouse RAW264.7 cells at 10 to 40 uM after 24 hrs by Western blot analysis. The assay is classed as cell-based.
Assay [9] deals with T2, Estrogen receptor (Mus musculus) (UniProt P19785).
T2 sequence (whole entry): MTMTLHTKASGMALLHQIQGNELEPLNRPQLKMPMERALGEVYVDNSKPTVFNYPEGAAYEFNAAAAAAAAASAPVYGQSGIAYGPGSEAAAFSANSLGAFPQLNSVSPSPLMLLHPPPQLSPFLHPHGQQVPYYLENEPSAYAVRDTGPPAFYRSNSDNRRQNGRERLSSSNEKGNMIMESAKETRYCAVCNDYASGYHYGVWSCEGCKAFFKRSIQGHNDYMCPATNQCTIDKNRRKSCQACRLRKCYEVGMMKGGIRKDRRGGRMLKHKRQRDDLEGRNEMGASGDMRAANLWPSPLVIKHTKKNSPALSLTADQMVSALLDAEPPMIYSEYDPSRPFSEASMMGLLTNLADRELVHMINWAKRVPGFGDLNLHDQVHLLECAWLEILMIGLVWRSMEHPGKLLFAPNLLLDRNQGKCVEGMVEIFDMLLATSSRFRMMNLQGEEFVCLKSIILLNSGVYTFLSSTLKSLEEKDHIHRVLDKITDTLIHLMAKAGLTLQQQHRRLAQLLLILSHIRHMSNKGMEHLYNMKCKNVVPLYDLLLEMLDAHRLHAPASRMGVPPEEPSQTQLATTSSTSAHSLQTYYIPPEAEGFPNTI
The experiment in a line: Induction of estrogen receptor-mediated AMPKalpha1 activation in mouse RAW264.7 cells at 20 uM in presence of PKA inhibitor H89. The assay is classed as cell-based.

Assay [10] deals with RAW264.7. The experiment in a line: Inhibition of RANKL-induced osteoclast differentiation in mouse RAW264.7 cells harboring AMPKalpha1 siRNA assessed as decrease in number of TRAP-positive multinucleated cells after 5 days by microscopy. Format: functional, cell-based.
Assay [11] deals with RAW264.7. In words: Inhibition of RANKL-induced osteoclast differentiation in mouse RAW264.7 cells harboring ERbeta siRNA assessed as decrease in size of TRAP-positive multinucleated cells at 20 uM after 5 days by microscopy. The assay is classed as functional, cell-based.
The test system of assay [12] is RAW264.7. The experiment in a line: Inhibition of RANKL-induced osteoclast differentiation in mouse RAW264.7 cells harboring ERbeta siRNA assessed as decrease in number of TRAP-positive multinucleated cells at 20 uM after 5 days by microscopy. Format: functional, cell-based.
Assay [13] has as its system Mus musculus. The experiment in a line: Anti-osteoporotic activity in Balb/c mouse assessed as inhibition of OVX-mediated decrease in trabecular bone volume in femur at 25 to 100 mg/kg, ip administered for 4 weeks daily by microcomputed tomography. The assay is classed as functional, organism-based.
For assay [14], the target named is T3, Estrogen receptor (Homo sapiens) (UniProt P03372).
T3 sequence (whole entry): T1 sequence (P03372 whole entry)
The experiment in a line: Agonist activity at estrogen receptor (unknown origin) expressed in mouse RAW264.7 cells after 6 hrs by luciferase reporter gene assay. Format: cell-based.

Assay [15] relates to RAW264.7. In words: Inhibition of NF-kappaB signaling pathway in mouse RAW264.7 cells assessed as reduction in RANKL-induced Akt phosphorylation at 10 to 40 uM after 30 mins by Western blot method. The assay is classed as cell-based.
For assay [16], the system named is RAW264.7. In words: Inhibition of RANKL-induced osteoclast differentiation in mouse RAW264.7 cells assessed as decrease in TRAP activity at 10 to 40 uM after 5 days by microscopy. The assay is classed as functional, cell-based.
Assay [17] deals with RAW264.7. In words: Inhibition of RANKL-induced osteoclast differentiation in mouse RAW264.7 cells harboring ERbeta siRNA assessed as decrease in c-Fos mRNA level at 20 uM after 24 hrs by qRT-PCR method. The assay is classed as functional, cell-based.
The test system of assay [18] is RAW264.7. The experiment in a line: Inhibition of RANKL-induced osteoclast differentiation in mouse RAW264.7 cells harboring AMPKalpha1 siRNA assessed as decrease in TRAP activity at 10 to 40 uM after 5 days by microscopy. The assay is classed as functional, cell-based.
The test system of assay [19] is RAW264.7. The experiment in a line: Inhibition of RANKL-induced osteoclast differentiation in mouse RAW264.7 cells assessed as TRAP activity after 5 days in presence of PKA inhibitor H89. The assay is classed as functional, cell-based.

Chain of Estrogen receptor beta (Q92731 whole entry): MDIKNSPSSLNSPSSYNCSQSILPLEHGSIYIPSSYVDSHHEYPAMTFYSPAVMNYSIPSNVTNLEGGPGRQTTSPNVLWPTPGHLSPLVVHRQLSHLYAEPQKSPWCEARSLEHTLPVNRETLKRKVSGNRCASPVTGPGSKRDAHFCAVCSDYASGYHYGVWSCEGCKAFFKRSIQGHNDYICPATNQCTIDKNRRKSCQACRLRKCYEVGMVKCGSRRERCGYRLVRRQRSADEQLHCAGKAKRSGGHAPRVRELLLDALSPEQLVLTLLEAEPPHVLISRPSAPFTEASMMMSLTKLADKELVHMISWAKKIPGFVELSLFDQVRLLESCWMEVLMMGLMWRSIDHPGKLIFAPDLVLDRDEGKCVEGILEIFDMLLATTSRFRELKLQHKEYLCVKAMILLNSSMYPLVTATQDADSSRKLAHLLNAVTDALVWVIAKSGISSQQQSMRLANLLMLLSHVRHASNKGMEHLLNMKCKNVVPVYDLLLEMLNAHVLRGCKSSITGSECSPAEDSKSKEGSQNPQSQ

As to `COc1cc(C2Oc3c(OC)cc(/C=C/CO)cc3C2CO)ccc1O` (stereo unspecified), the results for the IC50 at Estrogen receptor and on Estrogen receptor beta were 61.9 nM and 286 nM, respectively. Further, the inhibition result in the assay with RAW264.7 [1], in the assay with RAW264.7 [8], with RAW264.7 [10] and in the assay on RAW264.7 [18] was “inactive” throughout. For the same molecule, the inhibition entry in the assay with RAW264.7 [2] and with RAW264.7 [6] was “Dose-dependent effect” each time. The inhibition result with Mus musculus [3], with RAW264.7 [4], in the assay with RAW264.7 [5], with RAW264.7 [7], in the assay on RAW264.7 [11] and in the assay with RAW264.7 [12] was “Active” in each case. Besides, the inhibition result with Mus musculus [13], in the assay on RAW264.7 [15], in the assay on RAW264.7 [16], in the assay on RAW264.7 [17] and in the assay on RAW264.7 [19] was “Active” throughout. The outcome in [9] and in [14] was Active.
